These results are taken from patent US9815796B2 (Merck Sharp & Dohme Corp., priority 2013, dated 2017).

The target in the assay is Rhesus PDE2A3 (Macaca mulatta, UniProt B3VTJ2). The experiment in a line: PDE2 fluorescence polarization (IMAP FP) inhibition assay, rhesus enzyme. Type of assay: biochemical, rhesus macaque. In a few lines:
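IMAP FP (mP from parallel and perpendicular fluorescence against substrate-only control) was read ≥1 h after adding binding reagent. The preceding 60 min room-temperature reaction contained FAM-cAMP (50 nM) and cGMP (1 uM) in pH 7.2 Tris buffer with MgCl2 and DTT. Enzyme was supernatant of sonicated AD293 cells expressing rhesus PDE2A3; compounds were 3-fold titrated, DMSO 1% final.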

[1] abbreviates: Rhesus PDE2, Lab A, read-out: Rhesus PDE2 Ki (nM) - Lab A.
[2] abbreviates: Rhesus PDE2, Lab B, read-out: Rhesus PDE2 Ki (nM) - Lab B.

Read-outs that look alike come from different tables or passages of the source.

Sequence of Rhesus PDE2A3 (B3VTJ2 1-941): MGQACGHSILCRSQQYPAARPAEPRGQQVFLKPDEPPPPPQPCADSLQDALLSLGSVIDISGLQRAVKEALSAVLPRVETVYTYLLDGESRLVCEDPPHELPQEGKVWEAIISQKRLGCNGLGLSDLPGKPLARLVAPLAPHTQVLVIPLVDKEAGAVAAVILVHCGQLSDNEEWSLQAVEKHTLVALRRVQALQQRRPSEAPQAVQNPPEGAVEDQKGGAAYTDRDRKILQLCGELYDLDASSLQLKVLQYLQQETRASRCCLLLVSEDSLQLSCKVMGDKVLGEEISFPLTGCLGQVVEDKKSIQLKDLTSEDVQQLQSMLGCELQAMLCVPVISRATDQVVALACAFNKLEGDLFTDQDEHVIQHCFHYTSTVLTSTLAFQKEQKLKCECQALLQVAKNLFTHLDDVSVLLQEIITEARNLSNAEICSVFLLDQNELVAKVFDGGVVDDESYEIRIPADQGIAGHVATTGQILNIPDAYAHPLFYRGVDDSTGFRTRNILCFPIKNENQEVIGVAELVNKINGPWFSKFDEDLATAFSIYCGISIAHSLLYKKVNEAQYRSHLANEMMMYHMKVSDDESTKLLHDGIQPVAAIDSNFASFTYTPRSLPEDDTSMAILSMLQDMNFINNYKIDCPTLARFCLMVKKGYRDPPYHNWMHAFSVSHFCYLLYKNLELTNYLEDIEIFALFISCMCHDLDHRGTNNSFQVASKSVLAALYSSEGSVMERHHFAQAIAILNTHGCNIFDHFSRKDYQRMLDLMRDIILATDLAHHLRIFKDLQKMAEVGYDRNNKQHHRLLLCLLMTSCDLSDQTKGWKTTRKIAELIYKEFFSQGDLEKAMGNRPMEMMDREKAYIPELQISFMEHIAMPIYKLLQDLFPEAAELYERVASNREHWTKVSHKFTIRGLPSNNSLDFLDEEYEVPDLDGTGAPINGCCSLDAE

`O=C(NCc1ccc(C(F)(F)F)cc1Cl)c1cc(=O)[nH]c(C2CC2)n1` [Example 229, N-[2-chloro-4-(trifluoromethyl)benzyl]-2-cyclopropyl-6-oxo-1,6-dihydropyrimidine-4-carboxamide]: the Ki under setting [1] was 864 nM.
For the compound `CC(C)(NC(=O)c1cc(=O)[nH]c(-c2ncccn2)n1)c1ccc(S(F)(F)(F)(F)F)cc1` [Example 678, N-{1-methyl-1-[4-(pentafluoro-λ^6-sulfanyl)phenyl]ethyl}-6-oxo-1,6-dihydro-2,2′-bipyrimidine-4-carboxamide], the Ki under setting [2] is 501 nM.
As for `C[C@@H](NC(=O)c1cc(=O)[nH]c(-c2ncccn2)n1)c1cccc(C(F)(F)F)c1` [Example 80, 6-oxo-N-{(1R)-1-[3-(trifluoromethyl)phenyl]ethyl}-1,6-dihydro-2,2′-bipyrimidine-4-carboxamide], under setting [1], the Ki is 845 nM.
On the same count and under the same terms, to `O=C(NC1(c2ccc(C(F)(F)F)cc2)CCCC1)c1cc(=O)[nH]c(-c2ncccn2)n1` [Example 72, 6-oxo-N-{1-[4-(trifluoromethyl)phenyl]cyclopentyl}-1,6-dihydro-2,2′-bipyrimidine-4-carboxamide] belongs 333 nM; to `C[C@@H](NC(=O)c1cc(=O)[nH]c(-c2ncccn2)n1)c1ccc(CC(F)(F)F)cc1` [Example 107, 6-oxo-N-{(1R)-1-[4-(2,2,2-trifluoroethyl)phenyl]ethyl}-1,6-dihydro-2,2′-bipyrimidine-4-carboxamide], 21 nM.
In the case of `O=C(c1cc(=O)[nH]c(-c2ccccc2)n1)N1Cc2cnc(-c3ccccc3)nc2C1` [Example 409, 2-phenyl-6-[(2-phenyl-5,7-dihydro-6H-pyrrolo[3,4-d]pyrimidin-6-yl)carbonyl]pyrimidin-4(3H)-one], the Ki under setting [2] came out at 3930 nM.
With `CC(NC(=O)c1cc(=O)[nH]c(C2CC2)n1)c1ccc(C(F)(F)F)cn1` (stereo not drawn) [Example 238, 2-cyclopropyl-6-oxo-N-{1-[5-(trifluoromethyl)pyridin-2-yl]ethyl}-1,6-dihydropyrimidine-4-carboxamide], the Ki under setting [1] worked out at 683 nM.
The same measure, in the same setting: the result for `C[C@@H](NC(=O)c1cc(=O)[nH]c(C(C)(C)n2cccn2)n1)c1ccc(C(F)(F)F)cc1` [Example 7, 2-[1-methyl-1-(1H-pyrazol-1-yl)ethyl]-6-oxo-N-{(1R)-1-[4-(trifluoromethyl)phenyl]ethyl}-1,6-dihydropyrimidine-4-carboxamide] reads 2780 nM.
On to `CC(NC(=O)c1cc(=O)[nH]c(-c2ccccc2)n1)c1cccc(OC(F)(F)F)c1` (stereo not drawn) [Example 422, 6-oxo-2-phenyl-N-{1-[3-(trifluoromethoxy)phenyl]ethyl}-1,6-dihydropyrimidine-4-carboxamide], for which, under setting [2], the Ki worked out at 1840 nM.
As to `CC(NC(=O)c1cc(=O)[nH]c(-c2ccccc2)n1)c1ccncc1` (stereo not drawn) [Example 358, 6-oxo-2-phenyl-N-(1-pyridin-4-ylethyl)-1,6-dihydropyrimidine-4-carboxamide], the inhibition constant Ki under setting [1] came out at 11600 nM.
For `CC(NC(=O)c1cc(=O)[nH]c(-c2ccccc2)n1)c1cccc(-c2ccccc2)c1` (stereo not drawn) [Example 410, N-(1-biphenyl-3-ylethyl)-6-oxo-2-phenyl-1,6-dihydropyrimidine-4-carboxamide], the inhibition constant Ki under setting [2] amounted to 1960 nM.
On the same count and under the same terms, the result for `CCOC(=O)c1ccc([C@H](C)NC(=O)c2cc(=O)[nH]c(-c3ncccn3)n2)cc1` [Example 431, ethyl 4-[(1S)-1-{[(6-oxo-1,6-dihydro-2,2′-bipyrimidin-4-yl)carbonyl]amino}ethyl]benzoate] reads roughly 2890 nM.
As for `COc1cc(-c2ccc([C@@H](C)NC(=O)c3cc(=O)[nH]c(C)n3)cc2)ccn1` [Example 317, (R)—N-(1-(4-(2-methoxypyridin-4-yl)phenyl)ethyl)-2-methyl-6-oxo-1,6-dihydropyrimidine-4-carboxamide], the Ki under setting [1] came to 1810 nM.
On the same count and under the same terms, the result for `COc1ccc(C(NC(=O)c2cc(=O)[nH]c(-c3ncccn3)n2)c2ccc(C(F)(F)F)cc2)cc1` (stereo not drawn) [Example 87, N-{(4-methoxyphenyl)[4-(trifluoromethyl)phenyl]methyl}-6-oxo-1,6-dihydro-2,2′-bipyrimidine-4-carboxamide] reads 1920 nM.
For the compound `COc1cc(C(C)NC(=O)c2cc(=O)[nH]c(-c3ncccn3)n2)ccc1C(F)(F)F` (stereo not drawn) [Example 104, N-{1-[3-methoxy-4-(trifluoromethyl)phenyl]ethyl}-6-oxo-1,6-dihydro-2,2′-bipyrimidine-4-carboxamide], under setting [1], the inhibitory constant (Ki) worked out at 524 nM.
With `C[C@@H](NC(=O)c1cc(=O)[nH]c(-c2ccccc2)n1)c1cccc(C(F)(F)F)c1` [Example 168, 6-oxo-2-phenyl-N-{(1R)-1-[3-(trifluoromethyl)phenyl]ethyl}-1,6-dihydropyrimidine-4-carboxamide], under setting [1], the Ki worked out at 467 nM.
For `Cc1nc(C(=O)N[C@@H](c2ccc(C(F)(F)F)c([N+](=O)[O-])c2)C(C)(C)C)cc(=O)[nH]1` [Example 531, N-{(1R)-2,2-dimethyl-1-[3-nitro-4-(trifluoromethyl)phenyl]propyl}-2-methyl-6-oxo-1,6-dihydropyrimidine-4-carboxamide], under setting [2], the inhibition constant (Ki) was found to be 32 nM.
As for `Cc1nc(C(=O)N[C@@H](C)c2ccc(OC(F)F)cc2)cc(=O)[nH]1` [Example 56, (S)-N-(1-(4-(difluoromethoxy)phenyl)ethyl)-2-methyl-6-oxo-1,6-dihydropyrimidine-4-carboxamide], the Ki under setting [1] was determined as 4590 nM.
On to `CC(NC(=O)c1cc(=O)[nH]c(-c2ccccc2)n1)c1cccc(C(F)(F)F)c1` (stereo not drawn) [Example 395, 6-oxo-2-phenyl-N-{1-[3-(trifluoromethyl)phenyl]ethyl}-1,6-dihydropyrimidine-4-carboxamide], for which the inhibitory constant (Ki) under setting [2] amounted to 2050 nM.
The same measure, in the same setting: to `CC1(C(NC(=O)c2cc(=O)[nH]c(C3CC3)n2)c2ccc(SC(F)(F)F)c(F)c2)CC1` (single isomer, unassigned) [Example 705, (S)- or (R)-2-cyclopropyl-N-((3-fluoro-4-((trifluoromethyl)thio)phenyl)(1-methylcyclopropyl)methyl)-6-oxo-1,6-dihydropyrimidine-4-carboxamide] belongs 1070 nM.
Still for that read-out and setting: the result for `C[C@@H](NC(=O)c1cc(=O)[nH]c(-c2ccccc2)n1)c1ccc([N+](=O)[O-])cc1` [Example 459, N-[(1R)-1-(4-nitrophenyl)ethyl]-6-oxo-2-phenyl-1,6-dihydropyrimidine-4-carboxamide] reads 224 nM.
As to `Cc1nc(C(=O)N[C@H](C)c2ccc(-c3cccnc3)cc2)cc(=O)[nH]1` [Example 320, 2-methyl-6-oxo-N-[(1R)-1-(4-pyridin-3-ylphenyl)ethyl]-1,6-dihydropyrimidine-4-carboxamide], the inhibition constant Ki under setting [1] came to 1700 nM.
The same measure, in the same setting: to `COc1ccc2cc(C(C)NC(=O)c3cc(=O)[nH]c(C)n3)ccc2c1` (single isomer, unassigned) [Example 314, (S)- or (R)-N-[1-(6-methoxynaphthalen-2-yl)ethyl]-2-methyl-6-oxo-1,6-dihydropyrimidine-4-carboxamide] belongs 4740 nM.
Regarding `C[C@H](NC(=O)c1cc(=O)[nH]c(-c2ccccc2)n1)c1ccc([N+](=O)[O-])cc1` [Example 458, N-[(1S)-1-(4-nitrophenyl)ethyl]-6-oxo-2-phenyl-1,6-dihydropyrimidine-4-carboxamide], the Ki under setting [2] was 8130 nM.
As to `C[C@@H](NC(=O)c1cc(=O)[nH]c(-c2ccccc2)n1)c1ccccc1` [Example 342, 6-oxo-2-phenyl-N-[(1R)-1-phenylethyl]-1,6-dihydropyrimidine-4-carboxamide], the inhibitory constant (Ki) by setting is: under setting [1], roughly 605 nM; under setting [2], 963 nM.
Consider `CC(NC(=O)c1cc(=O)[nH]c(-c2ccccc2)n1)c1ccc2c(c1)OCO2` (stereo not drawn) [Example 376, N-[1-(1,3-benzodioxol-5-yl)ethyl]-6-oxo-2-phenyl-1,6-dihydropyrimidine-4-carboxamide], for which the inhibition constant Ki is, setting by setting: under setting [1], roughly 672 nM; under setting [2], 891 nM.
`CC(C)(NC(=O)c1cc(=O)[nH]c(-c2ccccc2)n1)c1cccc(Br)c1` [Example 400, N-[1-(3-bromophenyl)-1-methylethyl]-6-oxo-2-phenyl-1,6-dihydropyrimidine-4-carboxamide]: the Ki under setting [2] was 1070 nM.
On to `Cc1nc(C(=O)N[C@H](C)c2ccc(-c3ccc(C(F)(F)F)nc3)cc2)cc(=O)[nH]1` [Example 321, 2-methyl-6-oxo-N-[(1R)-1-{4-[6-(trifluoromethyl)pyridin-3-yl]phenyl}ethyl]-1,6-dihydropyrimidine-4-carboxamide], for which the Ki under setting [1] worked out at 911 nM.
Take `CC(NC(=O)c1cc(=O)[nH]c(-c2ccccc2)n1)c1ccc(O)cc1` (stereo not drawn) [Example 369, N-[1-(4-hydroxyphenyl)ethyl]-6-oxo-2-phenyl-1,6-dihydropyrimidine-4-carboxamide]: under setting [2], the Ki was 8780 nM.
The same measure, in the same setting: to `Cc1ccc([C@H](C)NC(=O)c2cc(=O)[nH]c(-c3ccccc3)n2)cc1` [Example 364, N-[(1S)-1-(4-methylphenyl)ethyl]-6-oxo-2-phenyl-1,6-dihydropyrimidine-4-carboxamide] belongs 3950 nM.
Regarding `COc1cc(C(F)(F)F)ccc1[C@@H](C)NC(=O)c1cc(=O)[nH]c(-c2ncccn2)n1` [Example 109, N-{(1R)-1-[2-methoxy-4-(trifluoromethyl)phenyl]ethyl}-6-oxo-1,6-dihydro-2,2′-bipyrimidine-4-carboxamide], the inhibition constant Ki under setting [1] is 342 nM.
Still for that read-out and setting: to `Cc1nc(C(=O)NC(C)c2cccc(-c3ccc(F)cc3)c2)cc(=O)[nH]1` (stereo not drawn) [Example 267, N-[1-(4′-fluorobiphenyl-3-yl)ethyl]-2-methyl-6-oxo-1,6-dihydropyrimidine-4-carboxamide] belongs 8060 nM.
On the same count and under the same terms, to `COCc1nc(C(=O)NC(C)(C)c2ccc(C(F)(F)F)cc2)cc(=O)[nH]1` [Example 124, 2-(methoxymethyl)-N-{1-methyl-1-[4-(trifluoromethyl)phenyl]ethyl}-6-oxo-1,6-dihydropyrimidine-4-carboxamide] belongs 283 nM.
Turning to `O=C(NC1(c2ccccc2OC(F)(F)F)CC1)c1cc(=O)[nH]c(-c2ccccc2)n1` [Example 380, 6-oxo-2-phenyl-N-{1-[2-(trifluoromethoxy)phenyl]cyclopropyl}-1,6-dihydropyrimidine-4-carboxamide], under setting [2], the Ki was determined as 353 nM.
